Measured values taken from US8436160B2, “Isolated DNA fragment of the SPARC human promoter and its use for driving the expression of an heterologous gene in tumor cells” (Consejo Nacional de Investigaciones Cientificas y Tecnicas …, priority 2006, dated 2013).

Columns and labels:
[1] = system: A375N (melanoma), HeLa (cervix) and T-47D (breast) cell lines; experiment: Luciferase reporter promoter activity of SPARC promoter fragments; format: cell-based, human; conditions: pGL3 constructs; relative to pGL3-Basic; A375N expresses SPARC, HeLa and T-47D do not
Description: The promoters obtained according to Example 2 were subcloned in the MluI/BglII, MluI/XhoI or NheI/XhoI sites of the pGL3-Basic plasmid (Promega Corp., Madison, Wis., USA) upstream of the luciferase reporter gene. All of the clonings was confirmed by restriction profiles and by sequencing the vectors (pGEM, TOPO and/or pGL3) with the universal primers T7 (TACGACTCACTATAGGG; SEQ ID NO 27); Sp6 (ATTTAGGTGACACTATAG; SEQ ID NO 28), T3 ([…]; SEQ ID NO 29) or P2 ([…]; SEQ ID NO 30) and P3 ([…]; SEQ ID NO 31).
The presence of the luciferase reporter gene allowed for the quantification of SPARC promoter activity in the 11 fragments obtained in Example 2, by measuring the luciferase enzymatic activity. The assay was performed in three cell lines, using the (melanoma) A375N line as a model since it expresses high SPARC levels and the (cervix) HeLa and (breast) T-47D lines, not expressing SPARC, according to the teachings of Example 1 above.
(§1) The cells were seeded in 24-well plates with a density of 4×10^4 cells/well. After 24 hours they were transfected using Lipofectamine2000 (Invitrogen Corp., Carlsbad, Calif.) according to the conditions indicated by the manufacturer. Each treatment was carried out at least in duplicate for each cell line, incubating 0.8 μg of treatment plasmid with 0.1 μg of pRL-CMV plasmid for 5 minutes with 50 μl DMEM medium without antibiotic and simultaneously, 1 μl Lipofectamine2000 with 50 μl of the same medium. These two preparations were mixed and incubated for 20 minutes at room temperature. The medium with cell serum was removed, washed with PBS and 200 μl high glucose DMEM was added without serum and without antibiotics; subsequently, 100 μl medium containing the lipofection mixture was added and 800 μl of culture medium corresponding to each cell line, supplemented with BFS, was added 4 hours later. The cells used were kept in a stove for 46 hours at 37° C. with 5% CO2. The Dual Luciferase Reporter Assay System kit (Promega Corp., Madison, Wis.) was used for the luciferase assay. This system implies the simultaneous expression of two individual reporter enzymes in the same system, allowing for the evaluation of the activity produced by the luciferase enzymes from the Firefly glow-worm (Photinus pyralis) and the Renilla coelenterate (Renilla reniformis) in only one sequential assay (Sherf, B. A. et al., Dual Luciferase Reporter Assay: An Advanced Co-Reporter Technology Integrating Firefly and Renilla Luciferase Assays. Promega Notes Magazine: 2-9, 1996). The data were normalized in the following way:
(§2) The data are expressed as induction amount relative to the activity obtained with the pGL3-Basic control plasmid (without promoter). […]

[2] = system: different tumor and normal cell lines; experiment: Luciferase reporter promoter activity, F512 vs Spdel; format: cell-based; conditions: for promoter activity across cell lines vs SPARC expression: melanoma, colon (T84, LoVo), glioma (U87), cervix (HeLa)
Description: as §1, §2
(§3) The two promoters F512 and Spdel, having similar promoter activity and as identified by the method of Example 3A, were assessed in different tumor and normal cell lines (see references in Example 1).

melanoma line MEL888 = experiment: Luciferase reporter promoter activity; format: cell-based, human
Description: as §1
(§4) The data are expressed as induction amount relative to the activity obtained with the pGL3-Basic control plasmid (without promoter). The pGl3-promoter plasmid (pGL3-prom, Promega Corp., Madison, Wis.) wherein the viral promoter from SV40 drives the expression of the luciferase enzyme, was used as a transfection control.
as §3

hMEC-1 cells = experiment: Ad(I)-F512-TK lytic effect in monolayer with GCV prodrug; format: cell-based, human
Description: (§5) According to the present inventors' hypothesis, normal cells have more resistance to viral replication. In this case, adding a toxic gene would allow for the enhancement of the lytic capability in a specific manner in those cells wherein the SPARC promoter was active. Thus, in vitro assays with Ad(I)-F512-TK were carried out, in which the cells were also treated by adding ganciclovir (GCV) prodrug. […] Other analyzed endothelial cells were those of bovine aorta (BAEC, kindly provided by Helene Sage, Seattle, USA).

BAEC cells = experiment: as above; format: cell-based, Bovine
Description: as §5

SB2 line = experiment: Luciferase reporter promoter activity; format: cell-based, human
Description: as §1, §4, §3

T84 = experiment: Luciferase reporter promoter activity; format: cell-based, human
Description: as §1, §4, §3

fibroblast line WI-38 VA = experiment: Luciferase reporter promoter activity; format: cell-based, human
Description: as §1, §4, §3

endothelium BAEC line = experiment: Luciferase reporter promoter activity; format: cell-based, Bovine
Description: The cells were seeded in 24-well plates with a density of 4×10^4 cells/well. After 24 hours they were transfected using Lipofectamine2000 (Invitrogen Corp., Carlsbad, Calif.) according to the conditions indicated by the manufacturer. Each treatment was carried out at least in duplicate for each cell line, incubating 0.8 μg of treatment plasmid with 0.1 μg of pRL-CMV plasmid for 5 minutes with 50 μl DMEM medium without antibiotic and simultaneously, 1 μl Lipofectamine2000 with 50 μl of the same medium. These two preparations were mixed and incubated for 20 minutes at room temperature. The medium with cell serum was removed, washed with PBS and 200 μl high glucose DMEM was added without serum and without antibiotics; subsequently, 100 μl medium containing the lipofection mixture was added and 800 μl of culture medium corresponding to each cell line, supplemented with BFS, was added 4 hours later. The cells used were kept in a stove for 46 hours at 37° C. with 5% CO2. […]
as §2, §3

## Spdel: complete SPARC promoter −1175/+71 with the 10 bp between the two GGA boxes deleted, SEQ ID NO 18
[1]
  promoter activity and specificity (luciferase): same activity than F512, in the A375N melanoma line
[2]; average, both in tumor and normal lines
  promoter activity with respect to the empty vector pGL3-Basic: 140 times higher
[2]
  promoter activity across cell lines vs SPARC expression: same activity in all lines
Melanoma line MEL888
  promoter activity with respect to the empty vector pGL3-Basic: 430 times higher

## Nc1nc(O)c2ncn(COC(CO)CO)c2n1 [GCV, ganciclovir]
hMEC-1 cells
  sensitivity of cells to prodrug alone: sensitive to the presence of the prodrug alone
BAEC cells
  sensitivity of cells to prodrug: sensitive to the prodrug

## −1175/+71: complete human SPARC promoter, SEQ ID NO 17
[1]
  promoter activity and specificity (luciferase): lower promoter activity in melanoma lines

B1: F512: human SPARC promoter fragment from base pair −513 to +35, SEQ ID NO 1 (nucleic acid, listed as Homo sapiens)
DNA: GCAGCTTGTCTTGTCTGTACAGTGGTAAGTCCTGGCCTTGCCTTTGTGGCAAATACAACCCCCTTGAATTGCTTGGCCCTTCTCAGCATTGCCTAATATTAGGGAGGACTCCTGTAAAGCTCACTGGTTAGAAGATCAAGACACTTGGGCCTGGTTCTGCCCCTGGGGGCCATTGGGTAATTCCTTGCAGTCTCCAGGCCTCACTTGCCCTCTGAACAAGAAAGAGGCTGTTCTGGGTCATCCCTCCAGGCCTGTCCAGCCCTGGCACTCTGTGAGTCGGTTTAGGCAGCAGCCCCGGAACAGATGAGGCAGGCAGGGTTGGGACGTTTGGTCAGGACAGCCCACCGCAAAAAGAGGAGGAAAGAAATGAAAGACAGAGACAGCTTTGGCTATGGGAGAAGGAGGAGGCCGGGGGAAGGAGGAGACAGGAGGAGGAGGGACCACGGGGTGGAGGGGAGATAGACCCAGCCCAGAGCTCTGAGTGGTTTCCTGTTGCCTGTCTCTAAACCCCTCCACATTCCCGCGGTCCTTCAGACTGCCCGGAGAGC
modifications: DNA fragment of the SPARC human promoter.
[1]
  promoter activity and specificity (luciferase): higher specificity and higher activity in the line expressing SPARC
[2]
  promoter activity across cell lines vs SPARC expression: lower activity in those lines with little or null SPARC expression
SB2 line
  promoter activity relative to the activity observed in A375N: approximately ⅓
T84
  promoter activity relative to melanoma lines: half the activity observed for the melanoma lines
Fibroblast line WI-38 VA
  promoter activity: active
Endothelium BAEC line
  promoter activity: active

B2: −120/+71: SPARC promoter fragment including the complete first exon, SEQ ID NO 24 (nucleic acid, listed as Homo sapiens)
DNA: GGGAGAAGGAGGAGGCCGGGGGAAGGAGGAGACAGGAGGAGGAGGGACCACGGGGTGGAGGGGAGATAGACCCAGCCCAGAGCTCTGAGTGGTTTCCTGTTGCCTGTCTCTAAACCCCTCCACATTCCCGCGGTCCTTCAGACTGCCCGGAGAGCGCGCTCTGCCTGCCGCCTGCCTGCCTGCCACTGAGG
[1]
  promoter activity and specificity (luciferase): higher unspecificity
